Laboratory results taken from article PMC7614683, “A small molecule PI3Kα activator for cardioprotection and neuroregeneration” (Nature, 2023).
Like-named read-outs stand apart in the source and are kept apart here.

Experiments:
Assay in all cases: SelectScreen Z-LYTE kinase activity assay (SI Table 6)
Type in all cases: biochemical
[1] = target: protein kinases of the Z-LYTE panel (Homo sapiens, UniProt Q02750); settings: MAP2K1 (MEK1), 1000 nM, [ATP] 100 μM
Summary of the method: (§1)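 Single-point profiling, 1 μM 1938; LanthaScreen binding, Adapta or Z-LYTE read-outs; 133 protein + 7 lipid kinases.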

[2] = target: protein kinases of the Z-LYTE panel (Homo sapiens, UniProt P22455)
Summary of the method: as §1

[3] = target: protein kinases of the Z-LYTE panel (Homo sapiens, UniProt P35968)
Summary of the method: as §1

[4] = target: protein kinases of the Z-LYTE panel (Homo sapiens, UniProt P08069)
Summary of the method: as §1

[5] = target: protein kinases of the Z-LYTE panel (Homo sapiens, UniProt Q9UM73)
Summary of the method: as §1

[6] = target: protein kinases of the Z-LYTE panel (Homo sapiens, UniProt P80192)
Summary of the method: as §1

[7] = target: T1, protein kinases of the Z-LYTE panel (Homo sapiens, UniProt O00418)
T1 sequence (O00418 1-725): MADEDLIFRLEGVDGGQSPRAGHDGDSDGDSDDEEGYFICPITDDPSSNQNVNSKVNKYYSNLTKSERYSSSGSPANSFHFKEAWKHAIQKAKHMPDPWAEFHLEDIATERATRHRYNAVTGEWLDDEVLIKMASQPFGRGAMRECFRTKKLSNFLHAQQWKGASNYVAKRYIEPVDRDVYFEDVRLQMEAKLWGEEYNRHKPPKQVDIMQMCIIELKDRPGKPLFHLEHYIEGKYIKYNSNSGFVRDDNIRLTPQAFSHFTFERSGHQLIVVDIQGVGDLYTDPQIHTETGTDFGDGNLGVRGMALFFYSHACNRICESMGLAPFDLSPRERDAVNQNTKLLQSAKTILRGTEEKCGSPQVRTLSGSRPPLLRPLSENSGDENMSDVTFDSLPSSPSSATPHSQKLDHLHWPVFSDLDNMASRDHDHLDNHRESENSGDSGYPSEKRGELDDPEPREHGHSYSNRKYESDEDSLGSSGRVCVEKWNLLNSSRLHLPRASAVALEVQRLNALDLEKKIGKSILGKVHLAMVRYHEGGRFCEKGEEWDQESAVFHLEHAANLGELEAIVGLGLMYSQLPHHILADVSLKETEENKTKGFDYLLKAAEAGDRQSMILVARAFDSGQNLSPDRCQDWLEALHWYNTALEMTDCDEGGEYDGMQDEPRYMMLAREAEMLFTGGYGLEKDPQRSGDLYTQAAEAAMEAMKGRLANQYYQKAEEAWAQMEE
Summary of the method: as §1

[8] = target: protein kinases of the Z-LYTE panel (Homo sapiens, UniProt O75582)
Summary of the method: as §1

[9] = target: protein kinases of the Z-LYTE panel (Homo sapiens, UniProt P49761)
Summary of the method: as §1

[10] = target: protein kinases of the Z-LYTE panel (Homo sapiens, UniProt P78527)
Summary of the method: as §1

[11] = target: protein kinases of the Z-LYTE panel (Homo sapiens, UniProt P04049, Y340D/Y341D); settings: RAF1 (cRAF) Y340D Y341D, 1000 nM, [ATP] 100 μM
Summary of the method: as §1

[12] = target: protein kinases of the Z-LYTE panel (Homo sapiens, UniProt Q13177)
Summary of the method: as §1

protein kinases of the Z-LYTE panel (Homo sapiens, UniProt P22455), sequence (P22455 22-802): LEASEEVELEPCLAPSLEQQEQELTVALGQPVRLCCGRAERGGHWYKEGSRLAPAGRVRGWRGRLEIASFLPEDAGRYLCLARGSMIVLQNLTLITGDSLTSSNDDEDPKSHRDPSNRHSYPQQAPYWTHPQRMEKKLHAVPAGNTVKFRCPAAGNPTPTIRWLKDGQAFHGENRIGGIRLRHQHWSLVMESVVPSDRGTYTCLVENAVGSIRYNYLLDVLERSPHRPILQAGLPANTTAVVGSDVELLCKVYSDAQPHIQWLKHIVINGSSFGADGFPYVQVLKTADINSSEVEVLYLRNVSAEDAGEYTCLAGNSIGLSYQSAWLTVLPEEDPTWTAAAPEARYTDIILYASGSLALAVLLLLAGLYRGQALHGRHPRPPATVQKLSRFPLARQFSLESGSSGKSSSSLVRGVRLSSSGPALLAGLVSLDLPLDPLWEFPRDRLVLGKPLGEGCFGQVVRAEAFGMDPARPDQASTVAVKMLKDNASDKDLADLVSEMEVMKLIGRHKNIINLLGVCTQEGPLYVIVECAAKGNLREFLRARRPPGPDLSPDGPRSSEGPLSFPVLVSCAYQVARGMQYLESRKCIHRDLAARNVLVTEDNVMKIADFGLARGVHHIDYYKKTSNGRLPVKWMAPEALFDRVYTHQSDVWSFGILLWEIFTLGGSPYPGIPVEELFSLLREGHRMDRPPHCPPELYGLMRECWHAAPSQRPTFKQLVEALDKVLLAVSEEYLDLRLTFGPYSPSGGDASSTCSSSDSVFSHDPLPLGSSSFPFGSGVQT
protein kinases of the Z-LYTE panel (Homo sapiens, UniProt P78527), sequence (P78527 whole entry): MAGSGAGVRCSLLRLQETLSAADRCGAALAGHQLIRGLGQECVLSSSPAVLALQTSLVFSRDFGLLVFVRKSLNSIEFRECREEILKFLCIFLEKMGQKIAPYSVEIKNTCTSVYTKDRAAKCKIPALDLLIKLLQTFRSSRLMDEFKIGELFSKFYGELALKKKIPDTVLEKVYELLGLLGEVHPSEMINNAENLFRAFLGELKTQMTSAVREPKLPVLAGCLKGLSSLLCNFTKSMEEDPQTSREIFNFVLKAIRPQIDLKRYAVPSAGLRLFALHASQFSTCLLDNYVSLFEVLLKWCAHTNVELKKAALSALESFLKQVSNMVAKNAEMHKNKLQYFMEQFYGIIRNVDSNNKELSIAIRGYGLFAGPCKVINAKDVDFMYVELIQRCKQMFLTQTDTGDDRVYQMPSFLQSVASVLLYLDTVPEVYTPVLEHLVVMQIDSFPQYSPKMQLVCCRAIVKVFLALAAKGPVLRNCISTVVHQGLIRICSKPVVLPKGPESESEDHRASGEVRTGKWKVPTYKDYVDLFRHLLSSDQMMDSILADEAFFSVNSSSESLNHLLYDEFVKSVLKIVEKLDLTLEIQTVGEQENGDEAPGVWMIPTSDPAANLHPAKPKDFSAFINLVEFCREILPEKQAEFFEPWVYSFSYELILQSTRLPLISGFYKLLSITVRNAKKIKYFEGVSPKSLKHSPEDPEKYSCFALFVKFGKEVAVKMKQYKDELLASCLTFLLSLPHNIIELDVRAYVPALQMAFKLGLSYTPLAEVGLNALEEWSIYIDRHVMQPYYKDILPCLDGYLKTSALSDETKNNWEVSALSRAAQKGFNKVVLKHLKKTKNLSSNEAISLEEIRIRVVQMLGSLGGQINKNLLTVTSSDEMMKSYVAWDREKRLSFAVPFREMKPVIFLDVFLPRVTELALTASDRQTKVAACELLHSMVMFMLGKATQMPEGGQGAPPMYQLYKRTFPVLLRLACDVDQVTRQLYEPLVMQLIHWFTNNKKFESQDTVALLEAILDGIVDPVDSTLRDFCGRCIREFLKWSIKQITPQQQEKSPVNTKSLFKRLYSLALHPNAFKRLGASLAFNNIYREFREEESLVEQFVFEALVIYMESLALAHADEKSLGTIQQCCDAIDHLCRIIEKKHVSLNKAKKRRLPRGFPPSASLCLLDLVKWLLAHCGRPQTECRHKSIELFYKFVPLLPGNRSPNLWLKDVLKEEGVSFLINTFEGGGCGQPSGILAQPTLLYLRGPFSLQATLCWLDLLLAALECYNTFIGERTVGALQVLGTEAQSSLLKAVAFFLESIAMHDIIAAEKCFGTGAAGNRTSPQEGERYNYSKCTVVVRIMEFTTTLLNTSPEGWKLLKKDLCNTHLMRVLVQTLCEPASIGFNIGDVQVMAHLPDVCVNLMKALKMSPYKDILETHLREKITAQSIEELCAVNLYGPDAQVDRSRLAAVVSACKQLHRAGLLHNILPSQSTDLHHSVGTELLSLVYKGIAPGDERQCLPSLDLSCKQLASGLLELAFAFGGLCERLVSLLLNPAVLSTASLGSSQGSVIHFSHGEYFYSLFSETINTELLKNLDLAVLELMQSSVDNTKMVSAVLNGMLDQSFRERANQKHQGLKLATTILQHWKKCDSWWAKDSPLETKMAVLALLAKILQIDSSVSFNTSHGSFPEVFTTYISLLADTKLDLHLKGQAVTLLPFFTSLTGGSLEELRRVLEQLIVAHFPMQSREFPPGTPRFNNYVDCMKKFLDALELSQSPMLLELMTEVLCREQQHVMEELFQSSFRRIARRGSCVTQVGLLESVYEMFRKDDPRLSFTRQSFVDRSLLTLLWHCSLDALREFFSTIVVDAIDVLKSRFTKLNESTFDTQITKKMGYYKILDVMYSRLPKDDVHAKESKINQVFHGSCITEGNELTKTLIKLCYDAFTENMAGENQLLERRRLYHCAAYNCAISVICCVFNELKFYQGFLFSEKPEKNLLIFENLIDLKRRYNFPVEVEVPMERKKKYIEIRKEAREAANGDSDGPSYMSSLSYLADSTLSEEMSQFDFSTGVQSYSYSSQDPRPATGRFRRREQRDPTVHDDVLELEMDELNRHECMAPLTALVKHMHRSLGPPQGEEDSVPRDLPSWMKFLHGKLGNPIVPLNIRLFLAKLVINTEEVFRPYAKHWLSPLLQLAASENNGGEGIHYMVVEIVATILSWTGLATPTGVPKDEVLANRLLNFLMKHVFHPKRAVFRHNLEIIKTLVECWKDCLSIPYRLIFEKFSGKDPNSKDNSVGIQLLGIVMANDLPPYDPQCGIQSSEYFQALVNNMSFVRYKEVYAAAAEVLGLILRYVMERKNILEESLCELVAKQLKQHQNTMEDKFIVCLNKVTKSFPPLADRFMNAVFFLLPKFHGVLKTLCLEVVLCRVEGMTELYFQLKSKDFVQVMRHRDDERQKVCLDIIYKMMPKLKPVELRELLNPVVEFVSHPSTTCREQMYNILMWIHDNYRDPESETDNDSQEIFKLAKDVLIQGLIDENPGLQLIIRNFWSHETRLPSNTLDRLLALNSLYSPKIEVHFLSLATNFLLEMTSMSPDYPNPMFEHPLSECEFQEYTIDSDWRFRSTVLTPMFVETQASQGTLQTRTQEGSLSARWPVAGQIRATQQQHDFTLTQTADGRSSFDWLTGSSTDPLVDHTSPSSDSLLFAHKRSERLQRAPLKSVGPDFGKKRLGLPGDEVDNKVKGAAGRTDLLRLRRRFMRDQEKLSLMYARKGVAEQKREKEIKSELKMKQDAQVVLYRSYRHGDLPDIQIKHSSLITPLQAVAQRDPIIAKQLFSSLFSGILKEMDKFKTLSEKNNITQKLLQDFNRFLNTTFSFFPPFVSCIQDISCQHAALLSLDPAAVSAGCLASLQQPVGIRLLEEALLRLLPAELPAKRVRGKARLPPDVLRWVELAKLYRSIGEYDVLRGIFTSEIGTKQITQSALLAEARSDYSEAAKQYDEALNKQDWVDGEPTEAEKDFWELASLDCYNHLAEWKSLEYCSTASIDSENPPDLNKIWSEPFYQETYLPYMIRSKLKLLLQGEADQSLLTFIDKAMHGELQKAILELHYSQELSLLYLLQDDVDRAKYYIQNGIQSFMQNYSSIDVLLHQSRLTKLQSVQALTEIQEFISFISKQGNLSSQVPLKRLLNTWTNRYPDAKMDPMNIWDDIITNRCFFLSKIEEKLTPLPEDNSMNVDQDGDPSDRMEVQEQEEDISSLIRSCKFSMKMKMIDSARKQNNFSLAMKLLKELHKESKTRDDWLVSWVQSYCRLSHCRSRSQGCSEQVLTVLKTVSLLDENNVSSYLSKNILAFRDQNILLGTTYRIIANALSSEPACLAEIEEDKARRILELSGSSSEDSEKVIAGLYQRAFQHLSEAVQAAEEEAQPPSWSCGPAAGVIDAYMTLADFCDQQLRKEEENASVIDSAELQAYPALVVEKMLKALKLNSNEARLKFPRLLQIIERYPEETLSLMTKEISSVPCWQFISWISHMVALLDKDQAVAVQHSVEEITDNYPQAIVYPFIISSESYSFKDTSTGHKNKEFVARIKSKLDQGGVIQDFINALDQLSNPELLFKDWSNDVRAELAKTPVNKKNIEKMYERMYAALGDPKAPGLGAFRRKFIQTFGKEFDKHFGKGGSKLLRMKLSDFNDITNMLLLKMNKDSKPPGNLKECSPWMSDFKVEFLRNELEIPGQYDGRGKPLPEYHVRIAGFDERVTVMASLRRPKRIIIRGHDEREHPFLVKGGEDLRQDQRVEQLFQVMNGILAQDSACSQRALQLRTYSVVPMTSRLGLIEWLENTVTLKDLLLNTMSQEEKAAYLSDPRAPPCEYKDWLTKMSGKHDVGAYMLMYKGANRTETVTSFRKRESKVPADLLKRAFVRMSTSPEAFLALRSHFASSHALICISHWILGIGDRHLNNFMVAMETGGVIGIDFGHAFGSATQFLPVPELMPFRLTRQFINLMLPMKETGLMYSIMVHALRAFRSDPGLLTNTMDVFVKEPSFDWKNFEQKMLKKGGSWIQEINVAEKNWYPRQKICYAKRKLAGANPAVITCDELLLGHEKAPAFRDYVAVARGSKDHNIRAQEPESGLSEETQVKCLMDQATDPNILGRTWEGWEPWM

`CCN1CCN(c2ccc(Nc3cc(Nc4cccc5c4N(C(C)=O)CC5)ccn3)cc2)CC1` [Compound 1938] gave an inhibition at 1 µM ([1]; read-out: % Inhibition Point 1) of 4%, an inhibition at 1 µM ([1]; read-out: % Inhibition Point 2) of 3.36% and an inhibition at 1 µM ([1]; read-out: % Inhibition mean) of 3.61%. It also gave an inhibition at 1 µM ([2]; read-out: % Inhibition Point 1) of 8.55%, an inhibition at 1 µM ([2]; read-out: % Inhibition Point 2) of 8% and an inhibition at 1 µM ([2]; read-out: % Inhibition mean) of 8%. It also gave an inhibition at 1 µM ([3]; read-out: % Inhibition Point 1) of 10%, an inhibition at 1 µM ([3]; read-out: % Inhibition Point 2) of 6.41% and an inhibition at 1 µM ([3]; read-out: % Inhibition mean) of 8%. For the same compound, the inhibition at 1 µM ([4]; read-out: % Inhibition Point 1) was 5.5%, the inhibition at 1 µM ([4]; read-out: % Inhibition Point 2) was 5.33% and the inhibition at 1 µM ([4]; read-out: % Inhibition mean) was 5.41%. The inhibition at 1 µM ([5]; read-out: % Inhibition Point 1) was 11%, the inhibition at 1 µM ([5]; read-out: % Inhibition Point 2) was 15% and the inhibition at 1 µM ([5]; read-out: % Inhibition mean) was 13%. For the same compound, the inhibition at 1 µM ([6]; read-out: % Inhibition Point 1) was 6.46%, the inhibition at 1 µM ([6]; read-out: % Inhibition Point 2) was 4% and the inhibition at 1 µM ([6]; read-out: % Inhibition mean) was 5%. It also gave an inhibition at 1 µM ([7]; read-out: % Inhibition Point 1) of -0.0213%, an inhibition at 1 µM ([7]; read-out: % Inhibition Point 2) of 0.399% and an inhibition at 1 µM ([7]; read-out: % Inhibition mean) of 0.189%. The inhibition at 1 µM ([8]; read-out: % Inhibition Point 1) was 1.64%, the inhibition at 1 µM ([8]; read-out: % Inhibition Point 2) was 4% and the inhibition at 1 µM ([8]; read-out: % Inhibition mean) was 3%. The inhibition at 1 µM ([9]; read-out: % Inhibition Point 1) was -1%, the inhibition at 1 µM ([9]; read-out: % Inhibition Point 2) was 0.422% and the inhibition at 1 µM ([9]; read-out: % Inhibition mean) was -0.267%. The inhibition at 1 µM ([10]; read-out: % Inhibition Point 1) was 9.47%, the inhibition at 1 µM ([10]; read-out: % Inhibition Point 2) was 10% and the inhibition at 1 µM ([10]; read-out: % Inhibition mean) was 10%. The inhibition at 1 µM ([11]; read-out: % Inhibition Point 1) was 5.53%, the inhibition at 1 µM ([11]; read-out: % Inhibition Point 2) was 8% and the inhibition at 1 µM ([11]; read-out: % Inhibition mean) was 6.59%. For the same compound, the inhibition at 1 µM ([12]; read-out: % Inhibition Point 1) was 5%, the inhibition at 1 µM ([12]; read-out: % Inhibition Point 2) was 4.68% and the inhibition at 1 µM ([12]; read-out: % Inhibition mean) was 5%.
